Data published in patent US7192742B2, “FO-6979 substances and process for producing the same” (Gakkou Houjin Kitasato Gakeun, priority 2001, dated 2007).
pIC50: −log10 of the molar value. Where two headings read alike, the source gives them in different places.

Experiments:
[1] = molecular target: T1, acyl-CoA: cholesterol acyltransferase derived from mouse; assay: Acyl-CoA: cholesterol acyltransferase activity assay, mouse liver microsome membrane fraction, [1-14C] oleoyl-CoA; type: biochemical; settings: 37° C. for 10 minutes, read-out: IC50, concentration which inhibits 50% of Acyl-CoA: cholesterol acyltransferase activity
T1 construct: A membrane fraction derived from mouse liver microsome was used as an enzyme origin
Method: Inhibitory activities of FO 6979-M0 substance, -M1 substance, -M2 substance, -M3 substance and -M4 substance of the present invention (hereinafter totally designates as FO-6979 substances) on acyl-CoA: cholesterol acyltransferase derived from mouse are explained hereinbelow.
Acyl-CoA: cholesterol acyltransferase activity was assayed by the modified method of Uelmen, et al. (J. Biol. Chem. 270: 26192–26201, 1995). A membrane fraction derived from mouse liver microsome was used as an enzyme origin. A mouse liver was homogenized with buffer A [50 mM Tris-HCL (pH 7.8), 1 mM EDTA and 1 mM phenylmethanesulfonyl fluoride] using Potter homogenizer (Tokyo-RIKO Inc.).
The homogenate was centrifuged at 12,000×g, and the supernatant solution was ultracentrifuged at 100,000×g to obtain the microsome fraction which was prepared for a solution with protein concentration 5 mg/ml by adding the buffer A. Assay of acyl-CoA: cholesterol acyltransferase activity was performed by adding enzyme 200 μg protein, […] bovine serumu alubumin, [1-^14C] oleoyl-CoA (final concentration 170 μM, 0.09 μCi) and each FO-6979 substance into the buffer A to prepare total 100 μl solution and incubated at 37° C. for 10 minutes.
Subsequently, the reaction was terminated by adding 0.5 ml ethanol and added 1.5 ml hexane therein, then stirred well. Hexane layer 1 ml was dried up and was spotted on TLC plate (silica gel plate, thickness 0.5 mm, Merck Co., U.S.A.) which was developed with a solvent mixture, petroleum ether/diethyl ether/acetic acid (90:10:1, v/v). The generated [^14C] cholesteryl olate was quantitative measured using radio scanner (Ambis Co.). Results indicating concentration which inhibits 50% of Acyl-CoA: cholesterol acyltransferase activity of FO-6979 substances (-M0 substance˜-M4 substance) (IC50) are shown in the following table.

[2] = test system: cholesteryl ester formation in mouse peritoneal macrophage; assay: Cholesteryl ester formation in mouse peritoneal macrophage ([14C] oleic acid incorporation); type: cell-based; settings: for pIC50: 14 hours incubation, read-out: IC50, generation of [14C] cholesteryl olate
Method: Inhibitory action of FO-6979 substances of the present invention on cholesteryl ester formation in mouse peritoneal macrophage is explained.
Cholesteryl ester formation and lipid droplets formation in mouse peritoneal macrophage were performed according to a method of Namatame et al.(J. Biochem. 125: 319–327, 1999). Macrophage isolated from mouse peritoneal fluid was suspended at 2.0×10^6 cells/ml in Dulbecco's modified Eagle's medium containing 6.8% lipoprotein deficient serum (6.8% LPDS-DMEM) and aliquots (0.25 ml) were dispensed into a 48-well microplate (Corning Co.).
(§1) The plate was incubated in a humidified 5% CO2 atmosphere incubator at 37° C. for 2 hours, after which each plate was washed with Hank's solution to remove the unattached cells. The plate was incubated in 6.8% LPDS-DMEM for 1 hour, and each one of FO-6979 substances (2.5 μl 1 methanol solution), liposome [consisting of phosphatidylcholine/phosphatidylserine/dicetylphosphate/cholesterol=10:10:2:15 (nmol) in 10 μl of 0.3 M glucose] and [1-^14C] oleic acid (5 μl, 0.05 μCi, 1 nmol) were added therein, then incubated further 14 hours.
After the incubation, supernatant was removed and the intracellular neutral lipids were extracted twice with adding hexane 0.6 ml and isopropanol 0.4 ml. The mixture was concentrated, spotted on TLC plate (silica gel plate, Merck Co., thickness 0.5 mm) and developed and with a mixed solvent of hexane/diethyl ether/acetia acid(70:30:1, v/v). The separated [^14C] cholesteryl olate and [^14C] triacylglycerol were quantitatively assayed using radio scanner (Ambis Co.).

[3] = test system: mouse peritoneal macrophage; assay: Toxicity test on growth of mouse peritoneal macrophage; type: cell-based; settings: final concentration of 50 μM
mice = assay: Toxicity test, intraperitoneal administration in mice; type: in vivo; settings: administered intraperitoneally, 100 mg/kg
Method: Next, toxicity test of FO-6979 substances of the present invention was explained hereinbelow.
No toxicity was noted when FO-6979-M0 substance, -M1 substance, -M2 substance, -M3 substance and -M4 substance was administered intraperitoneally in mice with 100 mg/kg.

Solubility in solvent = type: physicochemical
Source text: The thus obtained FO-6979-M0 substance, -M1 substance, -M2 substance, -M3 substance and -M4 substance exist in the cultured microorganism cells and the culture filtrate. Isolation of FO-6979-M0 substance, -M1 substance, -M2 substance, -M3 substance and -M4 substance from the cultured mass can be performed by extracting the whole cultured mass with water miscible organic solvent such as aceton, distilling off the organic solvent from the extract in vacuo, and extracting the residue with water immiscible organic solvent such as ethyl acetate. In addition to the above extraction procedure, conventional methods used for isolation of fat-soluble substances such as adsorption chromatography, gel filtration chromatography, thin-layer chromatography, counter current chromatography and high performance liquid chromatography can be used optionally in combination or repeatedly to isolate and purify FO-6979-M0 substance, -M1 substance, -M2 substance, -M3 substance and -M4 substance. Physicochemical properties of FO-6979 substances of the present invention are explained hereinbelow.

[4] = test system: lipid droplets formation in mouse peritoneal macrophage; assay: Lipid droplets formation in mouse peritoneal macrophage (oil red O / hematoxylin staining); type: cell-based; settings: 20 μM, 14 hours
Method: Inhibitory action of FO-6979 substances of the present invention on lipid droplets formation in mouse peritoneal macrophage is explained.
Lipid droplets formation in mouse peritoneal macrophage was performed according to the method of Namatame et al. (J. Biochem. 125:319–327, 1999). Macrophage isolated from mouse peritoneal fluid was suspended at 2.0×10^6 cells/ml in Dulbecco's modified Eagle's medium containing 6.8% lipoprotein deficient serum (6.8% LPDS-DMEM) and aliquots (0.25 ml) were dispensed into a slide chamber (Nunc Co.).
as §1, with “chamber” for “plate”, “the chamber” for “each plate”, “FO-6979-M3 substance” for “each one of FO-6979 substances”, “μl” for “μl 1”, “solution) and” for “solution),”, “glucose]” for “glucose] and [1-^14C] oleic acid (5 μl, 0.05 μCi, 1 nmol)”
The lipid droplets and nuclei were double stained with oilred O and hematoxylin, and observed by optical microscope (Olympus OpticalCo., Japan).

[5] = Mus musculus, Peritoneal macrophage, 14 h

Row | SMILES | pIC50 [1] | pIC50 [2, 5] | toxicity for growth of mouse peritoneal macrophage [3] | toxicity in mice (mice) | Solubility in solvent: methanol, benzene, chloroform and ethyl acetate (Solubility in solvent) | Solubility in solvent: water and hexane (Solubility in solvent) | inhibition at 45 µM ([2]; at 45 μM, read-out: inhibition of [14C] cholesteryl olate generation) [%] | pIC50 [2] | lipid droplets accumulated in cytoplasm, decreased to % as compared with no drug addition (control) [4]
1 | CCCCC(C)C1CC(=O)N[C@@H](C(C)C)C(=O)N[C@@H](C)C(=O)N[C@H](C(C)C)C(=O)O1 (stereo partly drawn) [FO-6979-M0 substance] | < 4.30 | < 4.60 | No toxicity | No toxicity | soluble | slight soluble | – | – | –
2 | CCCCC(C)C1CC(=O)N[C@@H](C(C)C)C(=O)N[C@@H](C)C(=O)N[C@H]([C@@H](C)CC)C(=O)O1 (stereo partly drawn) [FO-6979-M1 substance] | < 4.30 | < 4.35 | No toxicity | No toxicity | soluble | slightly soluble | 20 | – | –
3 | CCCCC(C)C1CC(=O)N[C@@H](C(C)C)C(=O)N[C@@H](C)C(=O)N[C@H](CC(C)C)C(=O)O1 (stereo partly drawn) [FO-6979-M2 substance] | – | – | No toxicity | No toxicity | Soluble | slightly soluble | – | < 4.60 | –
4 | CCCCC(C)C1CC(=O)N[C@@H](Cc2ccccc2)C(=O)N[C@@H](C)C(=O)N[C@H](C(C)C)C(=O)O1 (stereo partly drawn) [FO-6979-M3 substance] | 4.40 | 4.68 | No toxicity | No toxicity | soluble | slightly soluble | – | < 4.60 | about 50%
5 | CCCCCCC(C)C1CC(=O)N[C@@H](C(C)C)C(=O)N[C@@H](C)C(=O)N[C@H]([C@@H](C)CC)C(=O)O1 (stereo partly drawn) [FO-6979-M4 substance] | – | – | No toxicity | No toxicity | soluble | slightly soluble | – | – | –
